In patent US4446047A, “Pleochroic anthraquinone dyes” (Imperial Chemical Industries PLC, priority 1981, dated 1984):

Experiments:
Assay type in all cases: physicochemical
[1] = Order parameter in liquid crystal medium E43; details: E43, 20° C.
Description: In order to provide maximum contrast between the two states it is important that the guest molecules adopt as closely as possible the time averaged orientation of the host, however this is achieved only to a limited degree because of random thermal fluctuations. The degree to which the orientation varies from the ideal is measured by a quantity known as the order parameter S which is given by the following equation: […]
where cos^2 θ is a time averaged term and θ is the instantaneous angular orientation of the molecules with respect to the time averaged orientation of the host molecules.

[2] = Absorption maximum in liquid crystal medium E43; details: E43, 20° C.; for λmax: Table 4; for max: HPLC fractions, Table 3
Description: Detection was by means of a u.v. source (254 nm) and samples, corresponding to all the peaks in the chromatogram, were collected.

[3] = Molar extinction coefficient in chloroform
Description: To a mixture of 9.4 g of 2,7-di-n-pentyl-4,5-dinitrochrysazin from Example 25(b) in 200 ml of pyridine at 20° C. there was added a solution of 2.2 ml of thiophenol in 50 ml of pyridine. The colour of the mixture gradually changed from orange-brown to red and after 2 hours at 20° C. was drowned into water, filtered, washed successively with water and methanol and dried to yield 9.5 g of product (88% theory). The structure was confirmed by mass spectrometry and elemental analysis, C=67.5 (67.5) H=5.8 (5.8) S=6.7 (6.0) and N=3.0 (2.7).
To a mixture of 1.7 ml of 4-t-butylphenylmercaptan and 0.4 g of KOH in 50 ml of isopropanol at 60° C. was added 3.7 g of the product of Example 25(c) and the temperature raised to 80° C. for 1.5 hour. It was then cooled to room temperature, filtered, washed successively with isopropanol and methanol and dried to give 3.5 g of product. After recrystallisation from petroleum ether, the structure was confirmed by mass spectrometry and elemental analysis, C=73.0 (73.6) H=6.5 (6.8) S=9.1 (9.8).
The process of Example 25(c) was repeated using 9.6 g of 2,7-n-heptyl-4,5-dinitrochrysazin in place of the 9.4 g of 2,7-di-n-pentyl-4,5-dinitrochrysazin. The structure was confirmed by mass spectrometry.
The process of Example 25(d) was repeated using 3.8 g of 2,7-di-n-heptyl-4-phenylthio-5-nitrochrysazin in place of the 3.7 g of 2,7-di-n-pentyl-4-phenylthio-5-nitrochrysazin. After recrystallisation from petroleum ether, the structure was confirmed by mass spectrometry.

Compound | Order Parameter ([1]; Table 4) | λmax [2] | other results
CC(CCc1cc(Sc2ccccc2)c2c(c1O)C(=O)c1c(O)c(CCC(C)CC(C)(C)C)cc(Sc3ccccc3)c1C2=O)CC(C)(C)C (stereo not shown) [23(f), 1,8-dihydroxy-2,7-dinonyl-4,5-diphenylthio-AQ] | 0.72 | 590 nm | –
bis-(phenylthio)-bis-(t-butylphenylthio)AQ [Fraction 3a] | – | – | Order Parameter ([1]; HPLC fractions, Table 3): 0.78; max [2]: 550 nm
CC(C)(C)c1ccc(Sc2ccc(N)c3c2C(=O)c2c(N)ccc(Sc4ccccc4)c2C3=O)cc1 [Example 18, 1-phenylthio-5(4-t-butylphenylthio)-4,8-diamino-AQ] | 0.73 | 605 nm | –
CCCCCc1cc(Sc2ccccc2)c2c(c1O)C(=O)c1c(O)c(CCCCC)cc([N+](=O)[O-])c1C2=O [Example 25(c), 2,7-Di-n-pentyl-4-phenylthio-5-nitrochrysazin] | – | – | molar extinction coefficient ([3]; 540 nm): 12,541
CCCCSc1cccc2c1C(=O)c1cccc(Sc3ccccc3)c1C2=O [Example 14, 1-phenylthio-5(n-butylthio)AQ] | 0.75 | 470 nm | –
Cc1cccc(Sc2cccc3c2C(=O)c2cccc(Sc4ccccc4)c2C3=O)c1 [Example 12, 1-phenylthio-5(3-methylphenylthio)AQ] | 0.78 | 464 nm | –
O=C1c2cccc(Sc3ccc(-c4ccccc4)cc3)c2C(=O)c2cccc(Sc3ccccc3)c21 [Example 15, 1-phenylthio-5(4-phenylphenylthio)AQ] | 0.78 | 460 nm | –
bis-(phenylthio)-bis-(t-butylphenylthio)AQ [Fraction 4] | – | – | Order Parameter ([1]; HPLC fractions, Table 3): 0.77; max [2]: 550 nm
CC(C)(C)c1ccc(Sc2ccc(Sc3ccc(C(C)(C)C)cc3)c3c2C(=O)c2c(Sc4ccc(C(C)(C)C)cc4)ccc(Sc4ccc(C(C)(C)C)cc4)c2C3=O)cc1 (single isomer, unassigned) [1,4,5,8-tetrakis(4-t-butylphenylthio)anthraquinone, reference compound] | – | – | Order Parameter ([1]; HPLC fractions, Table 3): 0.78; max [2]: 550 nm
CCCCCCCCCCCCc1cc(Sc2ccccc2)c2c(c1O)C(=O)c1c(O)c(CCCCCCCCCCCC)cc(Sc3ccc(C(C)(C)C)cc3)c1C2=O [24(d), 1,8-dihydroxy-2,7-didodecyl-4-phenylthio-5-(4-t-butylphenylthio)-AQ] | 0.83 | 590 nm | –
CCCCCCCc1cc(Sc2ccccc2)c2c(c1O)C(=O)c1c(O)c(CCCCCCC)cc([N+](=O)[O-])c1C2=O [Example 26(c), 2,7-Di-n-heptyl-4-phenylthio-5-nitrochrysazin] | – | – | molar extinction coefficient ([3]; 540 nm): 12,095
O=C1c2c(Sc3ccccc3)ccc(Sc3ccccc3)c2C(=O)c2c(Sc3ccccc3)ccc(Sc3ccccc3)c21 (single isomer, unassigned) [1,4,5,8-tetrakis(phenylthio)anthraquinone, reference compound] | – | – | Order Parameter ([1]; HPLC fractions, Table 3): 0.78; max [2]: 550 nm
Cc1ccc(Sc2cccc3c2C(=O)c2cccc(Sc4ccccc4)c2C3=O)cc1 [Example 13, 1-phenylthio-5(4-methylphenylthio)AQ] | 0.80 | 464 nm | –
CC(CCc1cc(N)c2c(c1O)C(=O)c1c(O)c(CCC(C)CC(C)(C)C)cc(Sc3ccccc3)c1C2=O)CC(C)(C)C (stereo not shown) [23(d), 1,8-dihydroxy-2,7-di-nonyl-4-phenylthio-5-aminoanthraquinone] | 0.74 | 565/610 | –
CC(C)(C)c1ccc(Sc2ccc(Sc3ccccc3)c3c2C(=O)c2c(Sc4ccc(C(C)(C)C)cc4)ccc(Sc4ccc(C(C)(C)C)cc4)c2C3=O)cc1 [Fraction 2, tris-(t-butylphenylthio)-phenylthio-AQ] | – | – | Order Parameter ([1]; HPLC fractions, Table 3): 0.78; max [2]: 550 nm
CC(C)(C)c1ccc(Sc2ccc(Sc3ccccc3)c3c2C(=O)c2c(Sc4ccccc4)ccc(Sc4ccccc4)c2C3=O)cc1 [Fraction 5, tris-(phenylthio)-t-butylphenylthio-AQ] | – | – | Order Parameter ([1]; HPLC fractions, Table 3): 0.78; max [2]: 550 nm
O=C1c2cccc(SC3CCCCC3)c2C(=O)c2cccc(Sc3ccccc3)c21 [Example 16, 1-phenylthio-5-cyclohexylthio-AQ] | 0.81 | 465 nm | –

Further lines, with some results ahead:

Order Parameter ([1]; Table 4) | λmax [2] | Compound | other results
0.77 | 590 nm | CC(CCc1cc(Sc2ccccc2)c2c(c1O)C(=O)c1c(Sc3ccccc3)cc(CCC(C)CC(C)(C)C)c(O)c1C2=O)CC(C)(C)C (stereo not shown) [Example 23(e), 1,5-dihydroxy-2,6-dinonyl-4,8-diphenylthio-AQ] | –
0.77 | 592 nm | CCCCCc1cc(Sc2ccccc2)c2c(c1O)C(=O)c1c(O)c(CCCCC)cc(Sc3ccc(C(C)(C)C)cc3)c1C2=O [Example 25(d), 2,7-di-n-pentyl-4-phenylthio-5-(4-t-butylphenylthio)chrysazin] | molar extinction coefficient ([3]; 592 nm): 19,183
0.73 | 565/610 | CC(CCc1cc(N)c2c(c1O)C(=O)c1c(Sc3ccccc3)cc(CCC(C)CC(C)(C)C)c(O)c1C2=O)CC(C)(C)C (stereo not shown) [Example 23(c), 1,5-dihydroxy-2,6-dinonyl-4-phenylthio-8-aminoanthraquinone] | –
0.72 | 565/610 | CC(CCc1cc(Sc2ccccc2)c2c(c1O)C(=O)c1c([N+](=O)[O-])cc(CCC(C)CC(C)(C)C)c(O)c1C2=O)CC(C)(C)C (stereo not shown) [Example 23(a), 1,5-dihydroxy-2,6-dinonyl-4-phenylthio-8-nitroanthraquinone] | –
0.81 | 520 nm | CC(C)(C)c1ccc(Sc2cccc3c2C(=O)c2c(Sc4ccccc4)ccc(Sc4ccc(C(C)(C)C)cc4)c2C3=O)cc1 [Example 22, 1,5-di(4-t-butylphenylthio)-4-phenylthio-AQ] | –
